These results are taken from patent US8134015B2, “Compound inhibiting in vivo phosphorous transport and medicine containing the same” (Kyowa Hakko Kirin Co., Ltd., priority 2003, dated 2012).

Molecules are shown by their SMILES.

The first test deals with T1, rat NaPi-2b (Rattus norvegicus, UniProt Q9JJ09).
T1 construct: expressed in transfected cells; host or cells: Xenopus oocytes injected with cRNA
T1 sequence (Q9JJ09 1-695): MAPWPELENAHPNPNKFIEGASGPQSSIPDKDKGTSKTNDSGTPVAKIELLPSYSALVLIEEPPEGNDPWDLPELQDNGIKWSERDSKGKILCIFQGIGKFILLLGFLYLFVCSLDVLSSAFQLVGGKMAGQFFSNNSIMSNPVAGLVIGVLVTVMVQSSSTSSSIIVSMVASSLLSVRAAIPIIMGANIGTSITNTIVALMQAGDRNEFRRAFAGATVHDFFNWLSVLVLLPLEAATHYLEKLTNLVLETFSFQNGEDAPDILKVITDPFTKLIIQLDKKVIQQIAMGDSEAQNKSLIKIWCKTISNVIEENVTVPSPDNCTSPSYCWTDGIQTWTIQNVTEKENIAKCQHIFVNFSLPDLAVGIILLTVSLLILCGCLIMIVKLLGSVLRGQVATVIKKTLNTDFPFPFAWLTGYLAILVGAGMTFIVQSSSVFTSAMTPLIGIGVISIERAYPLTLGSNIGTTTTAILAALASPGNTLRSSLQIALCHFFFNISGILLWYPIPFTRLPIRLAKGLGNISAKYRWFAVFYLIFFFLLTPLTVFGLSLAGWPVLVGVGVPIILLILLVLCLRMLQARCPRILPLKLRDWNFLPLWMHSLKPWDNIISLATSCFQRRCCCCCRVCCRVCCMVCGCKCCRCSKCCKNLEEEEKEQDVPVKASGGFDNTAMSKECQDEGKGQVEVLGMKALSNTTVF
Description: Sodium-dependent phosphate uptake of Xenopus oocytes which expressed NaPi-2b (32P). The note with it: Xenopus oocytes expressing rat NaPi-2b, 32P radioactive phosphorus; read-out: IC50 (phosphate uptake inhibitory activity). Type of test: cell-based. The essentials:
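Percent inhibition at 300 μM and 100 μM comes from the same inhibition curve of 32P uptake. Assay used oocytes expressing rat NaPi-2b after 2 days of culture.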
For orientation: IC50 means the point on the concentration scale where inhibition reaches its midpoint. As for `CN(CCO)Cc1cccc(C(=O)Nc2ccc(Cl)cc2C(=O)N/N=C/c2ccc(O)cc2)c1` [Compound 403, N-[4-Chloro-2-(4-hydroxy-benzylidene-hydrazinocarbonyl)-phenyl]-3-{[(2-hydroxy-ethyl)-methyl-amino]-methyl}-benzamide], the IC50 was determined as 26.7 µM.

Take `Cc1ccc(/C=N/NC(=O)c2c(NC(=O)c3cccc(CN4CCC(CO)CC4)c3)sc3ccccc23)cc1` [Compound 799, 3-(4-Hydroxymethyl-piperidin-1-ylmethyl)-N-[3-(4-methyl-benzylidene-hydrazinocarbonyl)-benzo[b]thiophen-2-yl]-benzamide]: the IC50 is 3.72 µM.

As to `CCN(CC)CCN(C)Cc1cccc(C(=O)Nc2ccc(Cl)cc2C(=O)N/N=C/c2ccc(Cl)c(C(F)(F)F)c2)c1` [Compound 384, N-[4-Chloro-2-(4-chloro-3-trifluoromethyl-benzylidene-hydrazinocarbonyl)-phenyl]-3-{[(2-diethylamino-ethyl)-methyl-amino]-methyl}-benzamide], the IC50 is 0.25 µM.

As for `Cc1ccc(/C=N/NC(=O)c2c(C)csc2NC(=O)c2cccc(CSc3nc[nH]n3)c2)cc1C` [Compound 551, N-[3-(3,4-Dimethyl-benzylidene-hydrazinocarbonyl)-4-methyl-thiophen-2-yl]-3-(1H-[1,2,4]triazol-3-ylsulfanylmethyl)-benzamide], the IC50 was determined as 0.47 µM.

With `CN(CCO)Cc1cccc(C(=O)Nc2ccc(Cl)cc2C(=O)N/N=C/c2cccc(F)c2)c1` [Compound 394, N-[4-Chloro-2-(3-fluoro-benzylidene-hydrazinocarbonyl)-phenyl]-3-{[(2-hydroxy-ethyl)-methyl-amino]-methyl}-benzamide], the IC50 came out at 0.95 µM.

As for `Cc1ccc(/C=N/NC(=O)c2cc(N3CCCCC3)ccc2NC(=O)c2cccc(CN3CCC(O)CC3)c2)cc1` [Compound 871, 3-(4-Hydroxy-piperidin-1-ylmethyl)-N-[2-(4-methyl-benzylidene-hydrazinocarbonyl)-4-piperidin-1-yl-phenyl]-benzamide], the IC50 turned out to be 1 µM.

For `COc1ccc(C(=O)Nc2ccc(Br)cc2C(=O)N/N=C/c2cccc(O)c2)cc1OC` [Compound 63, N-[4-Bromo-2-(3-hydroxy-benzylidene-hydrazinocarbonyl)-phenyl]-3,4-dimethoxy-benzamide], the IC50 turned out to be 5.97 µM.

As to `CCN(CC)CCN(C)Cc1cccc(C(=O)Nc2ccc(I)cc2C(=O)N/N=C/c2ccc(OC)cc2)c1` [Compound 479, 3-{[(2-Diethylamino-ethyl)-methyl-amino]-methyl}-N-[4-iodo-2-(4-methoxy-benzylidene-hydrazinocarbonyl)-phenyl]-benzamide], the IC50 is below 3 µM.

Regarding `O=C(Nc1ccc(Br)cc1C(=O)N/N=C/c1ccc(F)cc1)c1ccc(F)cc1` [Compound 106, N-[4-Bromo-2-(4-fluoro-benzylidene-hydrazinocarbonyl)-phenyl]-4-fluoro-benzamide], the IC50 turned out to be 5.11 µM.

Take `O=C(Nc1ccc(Br)cc1C(=O)N/N=C/c1ccc(Cl)c(C(F)(F)F)c1)c1cccc(C[S+]([O-])CCO)c1` (centres unmarked) [Compound 679, N-[4-Bromo-2-(4-chloro-3-trifluoromethyl-benzylidene-hydrazinocarbonyl)-phenyl]-3-(2-hydroxy-ethanesulfinylmethyl)-benzamide]: the 50% inhibitory concentration (IC50) is below 3 µM.

On to `CN(C)CCn1nnnc1SCc1cccc(C(=O)Nc2ccc(Cl)cc2C(=O)N/N=C/c2ccc(F)cc2)c1` [Compound 463, N-[4-Chloro-2-(4-fluoro-benzylidene-hydrazinocarbonyl)-phenyl]-3-[1-(2-dimethylamino-ethyl)-1H-tetrazol-5-ylsulfanylmethyl]-benzamide], for which the IC50 was found to be 4.44 µM.

In the case of `COc1ccc(/C=N/NC(=O)c2cc(Br)ccc2NC(=O)c2ccc(CN(CC(C)O)CC(C)O)cc2)cc1` (centres unmarked) [Compound 722, 4-{[Bis-(2-hydroxy-propyl)-amino]-methyl}-N-[4-bromo-2-(4-methoxy-benzylidene-hydrazinocarbonyl)-phenyl]-benzamide], the IC50 was 12.8 µM.

For the compound `Cc1cc(/C=N/NC(=O)c2cc(Br)ccc2NC(=O)c2cccnc2)oc1C` [Compound 220, N-[4-Bromo-2-(4,5-dimethyl-furan-2-ylmethylene-hydrazinocarbonyl)-phenyl]-nicotinamide], the IC50 was determined as 9.42 µM.

Take `COc1cc(OC)cc(C(=O)Nc2ccc(Br)cc2C(=O)N/N=C/c2ccc(F)cc2)c1` [Compound 115, N-[4-Bromo-2-(4-fluoro-benzylidene-hydrazinocarbonyl)-phenyl]-3,5-dimethoxy-benzamide]: the IC50 came to 5.48 µM.

For `COc1ccc(/C=N/NC(=O)c2ccccc2NC(=O)c2cccc(F)c2)cc1Br` [Compound 101, N-[2-(3-Bromo-4-methoxy-benzylidene-hydrazinocarbonyl)-phenyl]-3-fluoro-benzamide], the IC50 is 0.75 µM.

`Cc1cccc(/C=N/NC(=O)c2cc(Br)ccc2NC(=O)c2ccc(CN3CCC(O)CC3)cc2)c1` [Compound 326, N-[4-Bromo-2-(3-methyl-benzylidene-hydrazinocarbonyl)-phenyl]-4-(4-hydroxy-piperidin-1-ylmethyl)-benzamide]: the IC50 was determined as 2.1 µM.

Staying with this test, now noted: phosphate uptake, oocytes expressing rat NaPi-2b; 100 μM, determined from inhibition curve.
In general, inhibition refers to the change of the read-out against control, counted positive when it falls. A higher inhibition goes with a strong effect. With `COc1ccc(/C=N/NC(=O)c2cc(N3CCC(N4CCCCC4)CC3)ccc2NC(=O)c2cccc(CSCCO)c2)cc1` [Compound 1068], the inhibition at 100 µM was found to be 74.4%.

Still in this test, the particulars now being: phosphate uptake, oocytes expressing rat NaPi-2b; 300 μM, determined from inhibition curve.
Compound `Cc1ccc(CNNC(=O)c2cc(Cl)ccc2NC(=O)c2cccc(CSc3ccncc3)c2)cc1C` [Compound 366, N-{4-Chloro-2-[N′-(3,4-dimethyl-benzyl)-hydrazinocarbonyl]-phenyl}-3-(pyridin-4-ylsulfanylmethyl)-benzamide] had an inhibition at 300 µM of 69.9%.

In turn, `COc1ccc(C(=O)Nc2ccc(Cl)cc2C(=O)N/N=C/c2cccc(C)n2)cc1OC` [Compound 246, N-[4-Chloro-2-(6-methyl-pyridin-2-ylmethylene-hydrazinocarbonyl)-phenyl]-3,4-dimethoxy-benzamide] yielded an inhibition at 300 µM of 32.6%.

As to `Cc1ccc(/C=N/NC(=O)c2cc(OCC(O)CN3CCCCC3)ccc2NC(=O)c2cccc(CN(CC(C)O)CC(C)O)c2)cc1C` (centres unmarked) [Compound 949, 3-{[Bis-(2-hydroxy-propyl)-amino]-methyl}-N-[2-(3,4-dimethyl-benzylidene-hydrazinocarbonyl)-4-(2-hydroxy-3-piperidin-1-yl-propoxy)-phenyl]-benzamide], testing at 300 µM gave an inhibition of 72.6%.

For `O=C(Nc1ccccc1C(=O)N/N=C/c1ccccc1F)c1ccccc1F` [Compound 236, 2-Fluoro-N-[2-(2-fluoro-benzylidene-hydrazinocarbonyl)-phenyl]-benzamide], at 300 µM the inhibition was 49.4%.

As to `CCSCCNCc1ccc(C(=O)Nc2ccc(Br)cc2C(=O)N/N=C/c2cccc(C)c2)cc1` [Compound 766, N-[4-Bromo-2-(3-methyl-benzylidene-hydrazinocarbonyl)-phenyl]-4-[(2-ethylsulfanyl-ethylamino)-methyl]-benzamide], the inhibition at 300 µM was found to be 81.9%.

For the compound `COc1ccc2cc(/C=N/NC(=O)c3ccccc3NC(=O)c3ccc(OC)c(OC)c3)ccc2c1` [Compound 232, 3,4-Dimethoxy-N-[2-(6-methoxy-naphthalen-2-ylmethylene-hydrazinocarbonyl)-phenyl]-benzamide], the inhibition at 300 µM amounted to 44.9%.
